Counter-ions that a name gives are not always drawn.
These compounds were tested on ICR CD strain male mice (assay: Gastric emptying enhancing activity (phenol red meal)). Conditions: Mus musculus, ip, 0.25 h, 3.0 mg/kg i.p., gastric emptying at 15 min after test meal, increase vs vehicle.
Assay type: in vivo
Experimental: ICR CD strain male mice (body weight, 25˜30 g; 8 mice per one group) were fasted for 24 h but allowed free access to water until 3 hours before the test.
Compounds to be tested for promoting GI motility were injected intraperitoneally or given orally at 30 min or 60 min prior to phenol red meal administration. Fifteen (15) min after administration of a test meal (0.5% Phenol red in 1.5% methylcellulose solution), mice were sacrificed and the stomach (pylorus˜cardia) was removed and collected to vial. The stomach was homogenized with its contents in 0.1N NaOH and the mixture was centrifuged (700*g) for 20 min. 2.5 mL of the supernatant was added to 0.25 mL of trichloroacetic acid solution (20% w/v) to precipitate proteins. After centrifuging (2600*g) for 20 min, 0.5 mL of the supernatant was added to 0.25 mL of 1N NaOH. The mixture was homogenized and its absorbance (Abs) was read at 560 nm.
In each experiment, one group was sacrificed just after the administration of the test meal and was considered as a standard (0% emptying). The gastric emptying (GE) at the 15 min period was calculated according to the following formula. GE (%)=(1−Abstest/Absstandard)×100 Increase (%)=(GE %test−GE %vehicle)/GE %vehicle*100

SMILES | change in vivo at 3 mg/kg [%]
COc1cc(N)c(Cl)cc1C(=O)NCC1CCN(CCC(O)CCc2ccc(F)cc2)CC1 (stereo not drawn) [Example 52, 4-amino-5-chloro-N-[[1-[5-(4-fluorophenyl)-3-hydroxypentyl]piperidin-4-yl]methyl]-2-methoxybenzamide; hydrochloride] | 131
COc1cc(N)c(Cl)cc1C(=O)NCC1CCN(CCC(Cc2ccc(F)cc2)NC(=O)O)CC1 (stereo not drawn) [Example 65, [4-[4-[[(4-amino-5-chloro-2-methoxybenzoyl)amino]methyl]piperidin-1-yl]-1-(4-fluorophenyl)butan-2-yl]carbamate; hydrochloride] | 93.1
COc1cc(N)c(Cl)cc1C(=O)NCC1CCN(CC(NC(=O)O)c2ccc(OC(F)F)cc2)CC1 (stereo not drawn) [Example 32, [2-[4-[[(4-amino-5-chloro-2-methoxybenzoyl)amino]methyl]piperidin-1-yl]-1-[4-(difluoromethoxy)phenyl]ethyl]carbamate; hydrochloride] | 40
COc1ccc(C(O)CCN2CCC(CNC(=O)c3cc(Cl)c(N)cc3OC)CC2)cc1 (stereo not drawn) [Example 40, 4-amino-5-chloro-N-[[1-[3-hydroxy-3-(4-methoxyphenyl)propyl]piperidin-4-yl]methyl]-2-methoxybenzamide; hydrochloride] | 51.6
COc1cc(N)c(Cl)cc1C(=O)NCC1CCN(CC(O)COc2ccccc2)CC1 (stereo not drawn) [Example 71, 4-amino-5-chloro-N-[[1-(2-hydroxy-3-phenoxypropyl)piperidin-4-yl]methyl]-2-methoxybenzamide; hydrochloride] | 63.7
COc1cc(N)c(Cl)cc1C(=O)NCC1CCN(CCC(O)c2ccccc2)CC1 (stereo not drawn) [Example 36, 4-amino-5-chloro-N-[[1-(3-hydroxy-3-phenylpropyl)piperidin-4-yl]methyl]-2-methoxybenzamide; hydrochloride] | 55.2
COc1cccc(C(O)CCN2CCC(CNC(=O)c3cc(Cl)c(N)cc3OC)CC2)c1 (stereo not drawn) [Example 49, 4-amino-5-chloro-N-[[1-[3-(3-methoxyphenyl)-3-hydroxypropyl]piperidin-4-yl]methyl]-2-methoxybenzamide; hydrochloride] | 17.8
Cn1c(=O)n(C(=O)NCC2CCN(CC(O)COc3ccccc3)CC2)c2ccccc21 (stereo not drawn) [Example 111, N-[[1-(2-hydroxy-3-phenoxypropyl)piperidin-4-yl]methyl]-3-methyl-2-oxobenzimidazole-1-carboxamide; hydrochloride] | 37.2
COc1cc(N)c(Cl)cc1C(=O)NCC1CCN(CC(COc2ccc(Cl)c(Cl)c2)NC(=O)O)CC1 (stereo not drawn) [Example 99, [1-[4-[[(4-amino-5-chloro-2-methoxybenzoyl)amino]methyl]piperidin-1-yl]-3-(3,4-dichlorophenoxy)propan-2-yl]carbamate; hydrochloride] | 47.5
COc1cc(N)c(Cl)cc1C(=O)NCC1CCN(CC(COc2ccccc2)OC(=O)N2CCCCC2)CC1 (stereo not drawn) [Example 88, [1-[4-[[(4-amino-5-chloro-2-methoxybenzoyl)amino]methyl]piperidin-1-yl]-3-phenoxypropan-2-yl]piperidine-1-carboxylate; hydrochloride] | 44.1
O=C(NCC1CCN(CCC(O)c2ccccc2)CC1)n1c(=O)n(C2CC2)c2ccccc21 (stereo not drawn) [Example 135, 3-cyclopropyl-N-[[1-(3-hydroxy-3-phenylpropyl)piperidin-4-yl]methyl]-2-oxobenzimidazole-1-carboxamide; hydrochloride] | 90.3
CC(C)n1c(=O)n(C(=O)NCC2CCN(CC(COc3ccc(F)cc3)NC(=O)O)CC2)c2ccccc21 (stereo not drawn) [Example 122, [1-(4-fluorophenoxy)-3-[4-[[(2-oxo-3-propan-2-ylbenzimidazole-1-carbonyl)amino]methyl]piperidin-1-yl]propan-2-yl]carbamate; hydrochloride] | 6.8

Source: US10144709B2, “Piperidine compounds, pharmaceutical composition comprising the same and its use” (SK BIOPHARMACEUTICALS CO., LTD., priority 2008, dated 2018)
